Laboratory results as given in patent US12583826B2, “[(1,5-diphenyl-1H-1,2,4-triazol-3-yl)oxy]acetic acid derivatives and salts thereof, crop protection compositions comprising them, methods for producing them and use thereof as safeners” (Bayer Aktiengesellschaft, priority 2019, dated 2026).

How the values were obtained:
[1] = system: summer wheat (TRZAS; cv. Triso); test: Absolute action: reduction of damage by mesosulfuron-methyl on summer wheat, greenhouse post-emergence; assay type: in vivo; settings: for Absolute reduction in herbicide damage (damage without safener minus damage with safener): mesosulfuron-methyl 20 g/ha; for Herbicide damage with compound of the formula (I): then mesosulfuron-methyl 20 g/ha, visual 0-100% scale, 14-21 days after application
Protocol: (§1) 2.1 Absolute Action of Selected Compounds of the Invention Using the Example of Reduction of Damage by Mesosulfuron-Methyl on Summer Wheat (TRZAS) The seeds of the crop plants to be treated are laid out in sandy loam in wood fiber or plastic pots (diameter ˜4 cm), covered with soil and grow in a greenhouse under good conditions for germination and growth. The trial plants were treated at the early leaf stage (BBCH10—BBCH12). In the course of this, the inventive compounds of the general formula (I) formulated in the form of wettable powders (WP) were sprayed onto the above-ground parts of the plants as an aqueous suspension with a water application rate corresponding to 800 l/ha with addition of wetting agent (e.g. 0.2% agrotin) in the specified dose. This was followed by the application of the herbicide. For this purpose, mesosulfuron-methyl, formulated in the form of water-dispersible granules (WG), was sprayed onto the above-ground parts of the plants in the form of an aqueous dispersion with a water application rate corresponding to 800 l/ha with addition of wetting agent (e.g. 0.2% agrotin) in a dose of 20 g/ha. The dose of the herbicide was chosen here such that it causes visually apparent damage (min. 30%, max. 75%) compared to untreated crop plants at the evaluation time on a control group of crop plants without safener treatment that were included in the same trial. After application, the plants were cultivated under good growth conditions in a greenhouse. The damage was visually assessed 14-21 days after application. The damage effect was assessed visually on a scale of 0-100% by comparison with untreated control plants, and averaged over 2-3 repeats per treatment. Examples: • 0%=no noticeable effect compared to the untreated plant • 20%=the treated plant population has 20% damage compared to the untreated control population (e.g. growth height, leaf damage, etc.) • 100%=treated plants completely damaged/killed.

[2] = system: summer barley (HORVS; cv. Montoya); test: Absolute action: reduction of damage by mesosulfuron-methyl on summer barley, greenhouse post-emergence; assay type: in vivo; settings: for Absolute reduction in damage (difference): mesosulfuron-methyl 20 g/ha, damage without minus with safener; for Herbicide damage with compound of the formula (I) (%): then mesosulfuron-methyl 20 g/ha, visual 0-100% scale, 14-21 days after application
Protocol: as §1, with “2.2 Absolute Action” for “2.1 Absolute Action”, “on Summer Barley (HORVS) The seeds” for “on Summer Wheat (TRZAS) The seeds”, “treated are aid out in” for “treated are laid out in”, “soil and grown in a” for “soil and grow in a”, “leaf stage (BBCE10-BBCH12). In the” for “leaf stage (BBCH10—BBCH12). In the”, “control population (e.g.: growth height,” for “control population (e.g. growth height,”

| SMILES | Absolute reduction in herbicide damage (damage without safener minus damage with safener) ([1]; safener 1000 g/ha) | Herbicide damage with compound of the formula (I) ([1]; safener 1000 g/ha) | Absolute reduction in damage (difference) ([2]; safener 125 g a.i./ha) | Herbicide damage with compound of the formula (I) (%) ([2]; safener 125 g a.i./ha) | Absolute reduction in damage (difference) ([2]; safener 500 g a.i./ha) | Herbicide damage with compound of the formula (I) (%) ([2]; safener 500 g a.i./ha) | Absolute reduction in herbicide damage (damage without safener minus damage with safener) ([1]; safener 125 g a.i./ha) | Herbicide damage with compound of the formula (I) ([1]; safener 125 g a.i./ha) | also measured |
| --- | --- | --- | --- | --- | --- | --- | --- | --- | --- |
| CCOC(=O)COc1nc(-c2ccccc2)n(-c2ccc(F)cc2)n1 [I.2-4] | 20% | 30% |  |  |  |  |  |  |  |
| CCOC(=O)COc1nc(-c2ccccc2)n(-c2ccc(F)cc2F)n1 [I.2-38] | 20% | 30% |  |  |  |  |  |  |  |
| O=C(O)COc1nc(-c2ccccc2)n(-c2ccc(F)cc2)n1 [I.3-4] | 27% | 23% |  |  |  |  |  |  | Absolute reduction in herbicide damage (damage without safener minus damage with safener) ([1]; safener 250 g/ha): 20%; Herbicide damage with compound of the formula (I) ([1]; safener 250 g/ha): 30% |
| O=C(O)COc1nc(-c2ccccc2)n(-c2ccc(Cl)cc2)n1 [I.3-7] | 33% | 10% |  |  |  |  |  |  | Absolute reduction in damage (difference) ([2]; safener 250 g a.i./ha): 20%; Herbicide damage with compound of the formula (I) (%) ([2]; safener 250 g a.i./ha): 40%; Absolute reduction in herbicide damage (damage without safener minus damage with safener) ([1]; safener 250 g/ha): 23%; Herbicide damage with compound of the formula (I) ([1]; safener 250 g/ha): 20% |
| COC(=O)COc1nc(-c2ccccc2F)n(-c2ccc(Cl)cc2Cl)n1 [I.4-32] |  |  | 20% | 37% | 44% | 13% | 34% | 23% | Absolute reduction in herbicide damage (damage without safener minus damage with safener) ([1]; safener 500 g a.i./ha): 47%; Herbicide damage with compound of the formula (I) ([1]; safener 500 g a.i./ha): 10% |
| COC(=O)COc1nc(-c2ccccc2F)n(-c2ccc(F)cc2F)n1 [I.4-38] |  |  |  |  | 50% | 7% | 27% | 30% |  |
| COC(=O)COc1nc(-c2ccccc2F)n(-c2ccc(Cl)cc2F)n1 [I.4-49] |  |  | 44% | 13% | 47% | 10% | 40% | 17% |  |
| CCOC(=O)COc1nc(-c2ccccc2F)n(-c2ccc(Cl)cc2Cl)n1 [I.5-32] | 27% | 30% |  |  |  |  |  |  |  |
| CCOC(=O)COc1nc(-c2ccccc2F)n(-c2ccc(Cl)cc2F)n1 [I.5-49] |  |  | 50% | 23% | 56% | 17% | 54% | 13% |  |
| O=C(O)COc1nc(-c2ccccc2F)n(-c2ccc(Cl)cc2Cl)n1 [I.6-32] |  |  |  |  |  |  |  |  | Absolute reduction in damage (difference) ([2]; safener 250 g a.i./ha): 20%; Herbicide damage with compound of the formula (I) (%) ([2]; safener 250 g a.i./ha): 40% |
| O=C(O)COc1nc(-c2ccccc2F)n(-c2ccc(F)cc2F)n1 [I.6-38] |  |  | 53% | 20% |  |  | 50% | 17% |  |
